The record followed here is patent US5049372A, “Anticancer activities in a host by increasing blood and plasma adenosine 5'-triphosphate (ATP) levels” (priority 1988, dated 1991).

Read-outs that look alike come from different tables or passages of the source.

In assay [1] the test system is CT26 colon adenocarcinoma. The assay can be described thus: Growth inhibition of footpad CT26 colon adenocarcinoma in CB6F1 mice, second series (FIGS. 2 and 3). It counts as in vivo, mouse. The following applies: for Anticancer activities against established footpad CT26 colon adenocarcinoma: CB6F1 mice, in words; for Inhibition of growth of palpable CT26 tumors (in words): daily i.p. in 2.2 ml saline, pH 6.2, 12 days, starting after tumors palpable, equimolar amounts. How it is done:
A further series of tests are conducted whereby tumors are inoculated by injections of 2.5×10^5 CT26 cells (over 90% viability) in 50 μl of phosphate-buffered saline into the right hind footpad of CB6F1 mice. The treatments were initiated at a variety of times after inoculation of the tumors. The injection schedules started either 1 or 5 days after tumor inoculation when none of the tumors are palpable or when the tumors are clearly palpable (average calculated weight of 100 mg), which occur in 100% of the inoculated mice after 8-11 days. Mice are randomized, divided into groups, and injected daily with 2.2 ml of saline, adenosine, AMP, or ATP (compounds are in sterile saline solutions at concentrations of 25 mM with AMP and ATP solutions adjusted to pH 6.2). Injections are administered intraperitoneally with 30 gauge needles and the mice are lightly anesthetized with […]. The mice are weighed and tumor sizes measured before the start of the treatment schedule and every three days during and after the treatment schedule. These determinations are performed before injections during the treatment period.
In particular, see FIG. 2. FIG. 2 illustrates inhibition of tumor growth (---) and host weight loss (-) in tumor-bearing mice by treatment with adenine nucleotides. Mice (CB6F1, 8 week old males) bearing palpable CT26 footpad tumors (on day 9 after tumor inoculation) are treated with saline (.smallcircle.), adenosine (o), AMP (Δ), or ATP (.quadrature.) as described herein. An untreated group is also included (x). Arrows indicate days of injection.
The magnitude of the antitumor activities of AMP and ATP depends to a small extent on the pH of the solution administered intraperitoneally. This property is probably related to the number of negative charges on the phosphate groups (the pKa of the secondary phosphate is around 6.6). AMP and especially ATP have some buffering capacity, and at a pH below 6.6 they carry a smaller net charge than at a physiological pH. The lower charge of these molecules enhances the initial (first hour) transport of AMP and ATP across the peritoneal membrane and into the systemic circulation (see Torres, et al., 1978, Pharmacol., 17, 330-340). […] The treatment schedule of palpable CT26 tumors which is illustrated in FIG. 2 consistently yields 10-20% of "cures". These mice remain tumor-free for at least two months.
FIG. 3 further illustrates inhibition of host weight loss in tumor-bearing animals by treatment with adenine nucleotides. Mice (CB6F1, males, 7 weeks old, in A, 10 weeks old in B, […]) with saline (.smallcircle.), adenosine (o), AMP (Δ), or ATP (.quadrature.) are initiated 1 day (A), 5 days (B), or 9 days after tumor inoculation (when all the tumors were palpable) (C). Arrows indicate days of injection. Experimental procedures were outlined in the text.

In the next assay the test system is CT26 tumors. The assay can be described thus: Growth inhibition of s.c. footpad CT26 tumors in CB6F1 mice by daily i.p. adenine nucleotides (Table 1). The assay is classed as in vivo, mouse. Conditions: for inhibition at 25000 µM: Mus musculus, CT26, 360 h, 1 ml of 25 mM, based on tumor weights. As for the experimental part:
The tumor cell lines employed were CT26, a mouse undifferentiated, aggressive colon carcinoma, and CAPAN-1, a well-differentiated human pancreatic adenocarcinoma. […] The cells are shown to be free of Mycoplasma contamination. Cells are cultured at 37° C. in a humidified atmosphere of 5% CO2 /95% air in MEM supplemented with antibiotics (100 units of penicillin per ml and 100 μg streptomycin per ml), L-glutamine (2 mM), non-essential amino acids (0.1 mM), sodium pyruvate (1 mM), and 10% fetal bovine serum.
In the tests, females and males CB6F1 mice (a standard F1 hybrid of BALB/C and C57BL/6) obtained from Jackson Laboratories, Bar Harbor, Maine and athymic outbred NCr nu/nu mice (males and females) from the Department of Radiation Medicine, Massachusetts General Hospital, Boston, Mass. 02114 are used. All the mice are kept for at least two weeks before inoculation of the tumors and the start of treatment and are 7-9 weeks old (CB6F1) or 6-7 weeks old (athymic nu/nu) at the start of the procedure. Animals weigh 20-25 g (females) or 23-28 g (males), are housed 5-12 per cage, and have ad libitum access to food and water.
Tumor cells are removed from subconfluent cultures by a mild trypsin-EDTA treatment, the cell pellet is washed once with MEM without serum and the cells are suspended at the desired cell numbers in PBS (phosphate-bufferedsaline, 8 g NaCl, 0.2 g KCl, 1.15 g Na2 HPO4.7H2 O, and 0.2 g KH2 PO4 per liter). Cell suspensions are shown to be at least 90% viable by trypan blue exclusion. Mice are injected subcutaneously in the right hind footpad with tumor cells suspended in 50 μl of PBS. The regular protocol (unless otherwise stated) consists of daily i.p. injections of 1 ml of 0.85% NaCl solution or 1 ml of 50 mM of AMP, ADP, or ATP in 0.85% NaCl (from stock solutions adjusted to pH 6.2) starting one day after tumor inoculation and given for ten consecutive days.
Injections are administered with 30 gauge needles and the mice are lightly anesthetized with ether. The mice are weighed before the start of treatment and once a week during and after treatment. After the tumors become palpable, tumor sizes are determined every three days. The animals are sacrificed, tumors are excised and weighed before they reach 10% of the animals' weight.
The growth inhibitory properties of adenine nucleotides against CT26 murine colon carcinoma, which are inoculated s.c. in the hind footpad of CB6F1 mice, are illustrated in Table 1 hereinbelow. […] No significant differences between males and females are observed either in the rate of tumor growth or in the tumor's response to adenine nucleotides treatment.

[2] abbreviates: experiment 6, 10 F per group, 0.5 × 10^5 cells, day 18, 1 ml of 50 mM i.p. daily (Ap4A 10 mM).
[3] abbreviates: experiment 1, 10 F per group, 0.5 × 10^6 cells, day 15, 1 ml of 25 mM i.p. daily.
Where [4] appears, read: experiment 2, 10 M per group, 0.5 × 10^6 cells, day 15, 1 ml of 25 mM i.p. daily.

Consider `O=P(O)(O)O` [inorganic phosphate, reference compound], for which, in assay [1], the “Anticancer activities against established footpad CT26 colon adenocarcinoma” value is “without such effects” and the “Inhibition of growth of palpable CT26 tumors (in words)” value is “without any effects on the growth of CT26 tumors”.
Turning to `Nc1ncnc2c1ncn2[C@@H]1O[C@H](COP(=O)(O)OP(=O)(O)OP(=O)(O)OP(=O)(O)OC[C@H]2O[C@@H](n3cnc4c(N)ncnc43)[C@H](O)[C@@H]2O)[C@@H](O)[C@H]1O` [AP4 A, reference compound], in the assay with CT26 tumors (setting [2]), the Tumor diameter came out at 0.9 ± 0.3 cm and the Tumor weight is 0.74 ± 0.21 g.
For the molecule `O=P(O)(O)OP(=O)(O)O` [inorganic pyrophosphate, reference compound], in assay [1], the “Anticancer activities against established footpad CT26 colon adenocarcinoma” value is listed as “without such effects” and the “Inhibition of growth of palpable CT26 tumors (in words)” value is recorded as “without any effects on the growth of CT26 tumors”.
One may read the inhibition as the drop in the measured response relative to a control, in per cent. With `Nc1ncnc2c1ncn2[C@@H]1O[C@H](COP(=O)(O)OP(=O)(O)OP(=O)(O)O)[C@@H](O)[C@H]1O` [ATP-MgCl2], the inhibition at 25000 µM came out at 18% in the assay on CT26 tumors (read-out: Inhibition of tumor growth (% of saline-treated), experiment 1, 10 F per group, 0.5 × 10^6 cells, day 15) and 26% in the assay on CT26 tumors (read-out: Inhibition of tumor growth (% of saline-treated), experiment 2, 10 M per group, 0.5 × 10^6 cells, day 15). The Tumor diameter in the assay on CT26 tumors (setting [3]) stood at 1.4 ± 0.2 cm; in the assay on CT26 tumors (setting [4]) it was 1.4 ± 0.3 cm. Moreover, the values for the Tumor weight with CT26 tumors (setting [3]) and in the assay on CT26 tumors (setting [4]) were 1.59 ± 0.24 g and 1.38 ± 0.40 g, respectively.
